This note sets out measurements from patent US9000044B2, “Substituted naphthylacetic acids” (Hoffmann-La Roche Inc., priority 2012, dated 2015).

human CRTH2, sequence (Q9Y5Y4 whole entry): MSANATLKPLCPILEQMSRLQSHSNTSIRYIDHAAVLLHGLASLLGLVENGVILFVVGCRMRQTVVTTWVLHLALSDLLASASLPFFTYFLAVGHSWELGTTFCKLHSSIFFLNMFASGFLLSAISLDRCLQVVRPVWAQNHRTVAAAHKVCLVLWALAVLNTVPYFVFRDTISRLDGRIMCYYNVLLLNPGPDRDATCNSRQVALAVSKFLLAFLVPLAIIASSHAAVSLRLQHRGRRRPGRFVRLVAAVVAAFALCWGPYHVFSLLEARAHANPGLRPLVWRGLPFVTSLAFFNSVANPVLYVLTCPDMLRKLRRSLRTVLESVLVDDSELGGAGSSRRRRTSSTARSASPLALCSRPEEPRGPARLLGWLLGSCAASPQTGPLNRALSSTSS

For this assay, the target named is human CRTH2 (Homo sapiens (Human), UniProt Q9Y5Y4). Put plainly: Calcium Flux Assay Using Fluorometric Imaging Plate Reader (FLIPR). The note with it: CHO-K1 cells with G-alpha 16 and human CRTH2; inhibition of DK-PGD2 ligand-induced Ca2+ flux. The assay is classed as cell-based. The protocol:
Calcium Flux Assay Using Fluorometric Imaging Plate Reader (FLIPR)
Cell Culture Conditions: CHO-K1 cells previously transfected with G-alpha 16 were subsequently transfected with the human CRTH2 receptor and the neomycin resistance gene. Following selection in 800 μg/mL G418 (geneticin), individual clones were assayed for their receptor expression based on staining with an anti human CRTH2 IgG, followed by assaying for their response to 13,14-dihydro-15-keto Prostaglandin D2 (DK-PDG2) (ligand) in the Ca^2+ Flux assay. Positive clones were then cloned by limiting dilution cloning. The transfected cells were cultured in Ham's F-12 medium supplemented with 10% fetal bovine serum, 2 mM glutamine, 100 U/mL penicillin/100 μg/mL streptomycin, 200 μg/mL hygromycin B, and 800 μg/mL G418 (geneticin). Cells were harvested with trypsin-EDTA (trypsin-ethylenediaminetetraacetic acid) and counted using ViaCount® reagent (from Guava Technologies, Inc. which contains two DNA-binding dyes that enable the reagent user to distinguish between viable and non-viable cells). The cell suspension volume was adjusted to 2.5×10^5 cells/mL with complete growth media. Aliquots of 50 μL were dispensed into BD Falcon™ 384 well black/clear microplates (from BD Biosciences, a division of Becton, Dickinson and Company) and the microplates were placed in a 37° C. CO2 incubator overnight. The following day, the microplates were used in the assay.
Loading Buffer containing dye (from the FLIPR® Calcium 3 Assay Kit from Molecular Devices, a division of MDS Analytical Technologies and MDS Inc.) was prepared by dissolving the contents of one bottle into 200 mL Hank's Balanced Salt Solution containing 20 mM HEPES (4-(2-hydroxyethyl)-1-piperazineethanesulfonic acid) and 2.5 mM probenecid. Growth media was removed from the cell plates and 25 μL of Hank's Balanced Salt Solution (HBSS) containing 20 mM HEPES, 0.05% BSA and 2.5 mM probenecid was added to each well followed by 25 μL of diluted dye using a Multidrop dispenser. The plates were then incubated for 1 hour at 37° C.
During the incubation, test compound plates were prepared by adding 90 μL of HBSS/20 mM HEPES/0.005% BSA buffer to the 2 μL of serial diluted compounds. To prepare serial diluted compounds, 20 mM stocks of compounds were dissolved in 100% DMSO. The compound dilution plate was set up as follows: well #1 received 5 μL of compound plus 10 μL of DMSO. Wells 2-10 received 10 μL of DMSO. 5 μL was mixed and transferred from well #1 into well #2. 1:3 serial dilutions were continued out 10 steps. 2 μL of diluted compound was transferred into duplicate wells of a 384 well “assay plate” and then 90 μL of buffer was added.
After incubation, both the cell and “assay plate” plates were brought to the fluorometric imaging plate reader (FLIPR®) and 20 μL of the diluted compounds were transferred to the cell plates by the FLIPR®. Plates were then incubated for 1 hour at room temperature. […] During the assay, fluorescence readings were taken simultaneously from all 384 wells of the cell plate every 1.5 seconds. Five readings were taken to establish a stable baseline, then 20 μL of sample was rapidly (30 μL/sec) and simultaneously added to each well of the cell plate. The fluorescence was continuously monitored before, during and after sample addition for a total elapsed time of 100 seconds. Responses (increase in peak fluorescence) in each well following agonist addition were determined. The initial fluorescence reading from each well, prior to ligand stimulation, was used as a zero baseline value for the data from that well. The responses were expressed as % inhibition of the buffer control.
Background: A change in cytosolic calcium serves as a functional read-out for many receptors and channels.
For orientation: IC50 means the concentration at which inhibition is half-maximal. In the case of `Cc1c(CC(=O)O)cc2ccc(F)cc2c1-c1ccc(S(=O)(=O)c2ccccc2Cl)cc1` [Example 2, {4-[4-(2-Chloro-benzenesulfonyl)-phenyl]-6-fluoro-3-methyl-naphthalen-2-yl}-acetic acid], the IC50 turned out to be 0.7 nM.
Regarding `Cc1c(CC(=O)O)cc2ccc(F)cc2c1-c1ccc(S(=O)(=O)c2cccc(Cl)c2)cc1` [Example 3, {4-[4-(3-Chloro-benzenesulfonyl)-phenyl]-6-fluoro-3-methyl-naphthalen-2-yl}-acetic acid], the IC50 turned out to be 3.9 nM.
Turning to `Cc1c(CC(=O)O)cc2ccc(F)cc2c1-c1ccc(S(=O)(=O)c2ccc(Cl)cc2)cc1` [Example 4, {4-[4-(4-Chloro-benzenesulfonyl)-phenyl]-6-fluoro-3-methyl-naphthalen-2-yl}-acetic acid], the IC50 stood at 3.2 nM.
`Cc1c(CC(=O)O)cc2ccc(F)cc2c1-c1ccc(S(=O)(=O)c2ccccc2C(F)(F)F)cc1` [Example 5, {6-Fluoro-3-methyl-4-[4-(2-trifluoromethyl-benzenesulfonyl)-phenyl]-naphthalen-2-yl}-acetic acid]: the IC50 was 1.3 nM.
As for `Cc1c(CC(=O)O)cc2ccc(F)cc2c1-c1ccc(S(=O)(=O)c2ccccc2OC(F)(F)F)cc1` [Example 6, {6-Fluoro-3-methyl-4-[4-(2-trifluoromethoxy-benzenesulfonyl)-phenyl]-naphthalen-2-yl}-acetic acid], the IC50 is 1 nM.
The same measure for `Cc1c(CC(=O)O)cc2ccc(F)cc2c1-c1ccc(S(=O)(=O)c2ccc(OC(F)(F)F)cc2)cc1` [Example 7, {6-Fluoro-3-methyl-4-[4-(4-trifluoromethoxy-benzenesulfonyl)-phenyl]-naphthalen-2-yl}-acetic acid]: 15.8 nM.
Regarding `Cc1c(CC(=O)O)cc2ccc(F)cc2c1-c1ccc(S(=O)(=O)c2ccc(Cl)cc2Cl)cc1` [Example 8, {4-[4-(2,4-Dichloro-benzenesulfonyl)-phenyl]-6-fluoro-3-methyl-naphthalen-2-yl}-acetic acid], the half-inhibitory concentration (IC50) is 9.1 nM.
The same measure for `Cc1c(CC(=O)O)cc2ccc(F)cc2c1-c1ccc(S(=O)(=O)c2cc(Cl)ccc2Cl)cc1` [Example 9, {4-[4-(2,5-Dichloro-benzenesulfonyl)-phenyl]-6-fluoro-3-methyl-naphthalen-2-yl}-acetic acid]: 3.7 nM.
For `Cc1c(CC(=O)O)cc2ccc(F)cc2c1-c1ccc(S(=O)(=O)c2ccc(F)cc2F)cc1` [Example 10, {4-[4-(2,4-Difluoro-benzenesulfonyl)-phenyl]-6-fluoro-3-methyl-naphthalen-2-yl}-acetic acid], the IC50 worked out at 1.2 nM.
The same measure for `Cc1c(CC(=O)O)cc2ccc(F)cc2c1-c1ccc(S(=O)(=O)c2c(F)cccc2F)cc1` [Example 11, {4-[4-(2,6-Difluoro-benzenesulfonyl)-phenyl]-6-fluoro-3-methyl-naphthalen-2-yl}-acetic acid]: 1.2 nM.
Consider `Cc1c(CC(=O)O)cc2ccc(F)cc2c1-c1ccc(S(=O)(=O)c2cc(C(F)(F)F)cc(C(F)(F)F)c2)cc1` [Example 12, {4-[4-(3,5-Bis-trifluoromethyl-benzenesulfonyl)-phenyl]-6-fluoro-3-methyl-naphthalen-2-yl}-acetic acid], for which the IC50 worked out at 14 nM.
As to `Cc1c(CC(=O)O)cc2ccc(F)cc2c1-c1ccc(S(=O)(=O)c2cc(Cl)cc(Cl)c2)cc1` [Example 13, {4-[4-(3,5-Dichloro-benzenesulfonyl)-phenyl]-6-fluoro-3-methyl-naphthalen-2-yl}-acetic acid], the IC50 amounted to 5.4 nM.
For the compound `Cc1c(CC(=O)O)cc2ccc(F)cc2c1-c1ccc(S(=O)(=O)c2cc(F)cc(F)c2)cc1` [Example 14, {4-[4-(3,5-Difluoro-benzenesulfonyl)-phenyl]-6-fluoro-3-methyl-naphthalen-2-yl}-acetic acid], the IC50 came to 1.6 nM.
Take `Cc1c(CC(=O)O)cc2ccc(Cl)cc2c1-c1ccc(S(=O)(=O)c2ccccc2Cl)cc1` [Example 15, {6-Chloro-4-[4-(2-chloro-benzenesulfonyl)-phenyl]-3-methyl-naphthalen-2-yl}-acetic acid]: the IC50 is 9.2 nM.
`Cc1c(CC(=O)O)cc2ccc(Cl)cc2c1-c1ccc(S(=O)(=O)c2cccc(Cl)c2)cc1` [Example 16]: the IC50 was determined as 8.1 nM.
Consider `Cc1c(CC(=O)O)cc2ccc(Cl)cc2c1-c1ccc(S(=O)(=O)c2ccc(Cl)cc2)cc1` [Example 17, {6-Chloro-4-[4-(4-chloro-benzenesulfonyl)-phenyl]-3-methyl-naphthalen-2-yl}-acetic acid], for which the IC50 was determined as 7 nM.
`Cc1c(CC(=O)O)cc2ccc(Cl)cc2c1-c1ccc(S(=O)(=O)c2ccccc2C(F)(F)F)cc1` [Example 18, {6-Chloro-3-methyl-4-[4-(2-trifluoromethyl-benzenesulfonyl)-phenyl]-naphthalen-2-yl}-acetic acid]: the IC50 came out at 2.3 nM.
Take `Cc1c(CC(=O)O)cc2ccc(Cl)cc2c1-c1ccc(S(=O)(=O)c2ccccc2OC(F)(F)F)cc1` [Example 19, {6-Chloro-3-methyl-4-[4-(2-trifluoromethoxy-benzenesulfonyl)-phenyl]-naphthalen-2-yl}-acetic acid]: the IC50 is 19.7 nM.
On to `Cc1c(CC(=O)O)cc2ccc(Cl)cc2c1-c1ccc(S(=O)(=O)c2ccc(OC(F)(F)F)cc2)cc1` [Example 20, {6-Chloro-3-methyl-4-[4-(4-trifluoromethoxy-benzenesulfonyl)-phenyl]-naphthalen-2-yl}-acetic acid], for which the IC50 is 12.9 nM.
Regarding `Cc1c(CC(=O)O)cc2ccc(Cl)cc2c1-c1ccc(S(=O)(=O)c2cc(Cl)ccc2Cl)cc1` [Example 22, {6-Chloro-4-[4-(2,5-dichloro-benzenesulfonyl)-phenyl]-3-methyl-naphthalen-2-yl}-acetic acid], the IC50 amounted to 4.4 nM.
The same measure for `Cc1c(CC(=O)O)cc2ccc(Cl)cc2c1-c1ccc(S(=O)(=O)c2ccc(F)cc2F)cc1` [Example 23, {6-Chloro-4-[4-(2,4-difluoro-benzenesulfonyl)-phenyl]-3-methyl-naphthalen-2-yl}-acetic acid]: 2.3 nM.
For `Cc1c(CC(=O)O)cc2ccc(Cl)cc2c1-c1ccc(S(=O)(=O)c2c(F)cccc2F)cc1` [Example 24, {6-Chloro-4-[4-(2,6-difluoro-benzenesulfonyl)-phenyl]-3-methyl-naphthalen-2-yl}-acetic acid], the half-inhibitory concentration (IC50) was determined as 312 nM.
For the compound `Cc1c(CC(=O)O)cc2ccc(Cl)cc2c1-c1ccc(S(=O)(=O)c2cc(C(F)(F)F)cc(C(F)(F)F)c2)cc1` [Example 25, {4-[4-(3,5-Bis-trifluoromethyl-benzenesulfonyl)-phenyl]-6-chloro-3-methyl-naphthalen-2-yl}-acetic acid], the IC50 came to 44.7 nM.
Consider `Cc1c(CC(=O)O)cc2ccc(Cl)cc2c1-c1ccc(S(=O)(=O)c2cc(Cl)cc(Cl)c2)cc1` [Example 26, {6-Chloro-4-[4-(3,5-dichloro-benzenesulfonyl)-phenyl]-3-methyl-naphthalen-2-yl}-acetic acid], for which the IC50 was found to be 22.1 nM.
For the compound `Cc1c(CC(=O)O)cc2ccc(Cl)cc2c1-c1ccc(S(=O)(=O)c2cc(F)cc(F)c2)cc1` [Example 27, {6-Chloro-4-[4-(3,5-difluoro-benzenesulfonyl)-phenyl]-3-methyl-naphthalen-2-yl}-acetic acid], the IC50 is 0.7 nM.
In the case of `Cc1c(CC(=O)O)cc2ccc(Cl)cc2c1-c1ccc(S(=O)(=O)Nc2ccc(F)cc2)cc1` [Example 28, {6-Chloro-4-[4-(4-fluoro-phenylsulfamoyl)-phenyl]-3-methyl-naphthalen-2-yl}-acetic acid], the IC50 worked out at 1.1 nM.
Regarding `Cc1ccc(NS(=O)(=O)c2ccc(-c3c(C)c(CC(=O)O)cc4ccc(Cl)cc34)cc2)cc1` [Example 29, [6-Chloro-3-methyl-4-(4-p-tolylsulfamoyl-phenyl)-naphthalen-2-yl]-acetic acid], the IC50 is 2.7 nM.
